In brackets after ≈: the same amount, converted by molar mass. Several values for one entry are separate records, joined by “and”; a condition that tells them apart may be missing. Identical values can stand only once. Like-named read-outs stand apart in the source and are kept apart here.
How the values were obtained:
[1] = system: mvfR mutant constitutively expressing the pqsABCDE operon; assay type: cell-based; conditions: Pseudomonas aeruginosa, control about 100, single replicates (Figure 4a)
[2] = system: pyocyanin production in PA14; assay: Pyocyanin production assay; conditions: Pseudomonas aeruginosa; for activity at 50 µM: PA14, 18 h, read-out: % Production Pyocyanin; for IC50: PA14, read-out: IC50 pyocyanin production
Procedure: The over-day culture was grown to OD600nm 1.5., diluted again at 1:10,000 in 5 mL LB and incubated with 10 μM of the test compound or the vehicle control for 18 hours at 37 °C and 200 rpm in an incubator shaker. After 18 h, 1 mL of culture was centrifuged for 2 min at 20.000 x g. The supernatant was transferred to a new tube, 200 μL of this were loaded in a flat-bottom 96-well plate, and the pyocyanin levels were quantified by measuring at OD690nm in the infinite F200 plate reader using the Magellan software (Tecan, Switzerland). […] The percent of pyocyanin was calculated compared to the PA14 culture grown in the absence of compounds.
To determine the IC50 of pyocyanin production, we followed the same process as above. […] Using GraphPad Prism Software, the IC50 curve was plotted against percent inhibition of pyocyanin production at each concentration using PA14 in the absence of compounds as a control.

ΔmvfR biofilm = assay: Biofilm formation of ΔmvfR mutant (off-target); conditions: Pseudomonas aeruginosa, PA14, 24 h, read-out: Biofilm formation, ΔmvfR + compound; PA14 about 100; single replicates (Figure 4c)
MvfR protein (MvfRC87) = target: T1, MvfR protein (MvfRC87) (Pseudomonas aeruginosa, UniProt Q9I4X0); assay type: binding; conditions: SPR
T1 construct: The MvfRC87 protein purified as in Xiao et. al., 2006; made in house
T1 sequence (Q9I4X0 87-332): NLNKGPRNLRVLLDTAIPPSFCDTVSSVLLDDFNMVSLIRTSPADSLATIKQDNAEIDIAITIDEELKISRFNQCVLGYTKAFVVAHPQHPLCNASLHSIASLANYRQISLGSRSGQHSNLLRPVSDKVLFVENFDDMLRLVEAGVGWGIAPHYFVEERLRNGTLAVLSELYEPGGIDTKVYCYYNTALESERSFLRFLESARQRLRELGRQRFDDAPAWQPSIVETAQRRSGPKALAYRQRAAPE
Summary of the method: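 MvfRC87 amine-coupled to a CM7 chip (3000–5000 RU) and binding measured by SPR. Double-reference-corrected responses 5 s before end of association plotted against concentration, for inhibitor alone and with native ligand PQS, compared with responses calculated for different binding sites.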

[3] = Solubility in iPBS pH 7.4 by HPLC; assay type: physicochemical; conditions: isotonic phosphate buffer (iPBS), aqueous with cosolvent or surfactant or cyclodextrin, kinetic from dmso stock; iPBS pH 7.4, HPLC; read-out: Solubility (M) in PBS
Summary of the method: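 Compounds from 10 mM DMSO stock shaken 4 h at room temperature in iPBS pH 7.4 (10 mM PBS, 2.7 mM KCl, 140 mM NaCl, 0.05% Tween), then filtered. Concentration measured by HPLC-UV against a known standard solution; solubility given as ratio of compound in test solution to standard.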

[4] = system: pqsA promoter (PA14 PpqsA-GFPASV); assay: pqsA-GFP reporter expression; assay type: cell-based, Pseudomonas aeruginosa; conditions: Pseudomonas aeruginosa; for activity at 50 µM: PA14, read-out: % Production pqsA-GFP; for IC50: PA14, read-out: IC50 pqsA-GFP expression, PA14, 13 concentrations
PA14 AT/P cells = assay: AT/P cells formation assay in PA14; assay type: cell-based, Pseudomonas aeruginosa; conditions: for inhibition at 10 µM: Pseudomonas aeruginosa, PA14, 24 h, read-out: inhibition of AT/P cells formation
[5] = system: MvfR-regulated small molecules in PA14; assay: Production of HAQs, 2-AA, DHQ and AA in PA14 cultures (LC-MS); conditions: Pseudomonas aeruginosa
Procedure: The HAQs HHQ, PQS, HQNO, and non-HAQs: 2-AA and DHQ produced by PA14 cells were quantified in the presence of NAMs. The overnight grown starter culture was diluted 1:100 in 5 mL LB media in a glass tube and was allowed to grow in the presence (50 µM) or absence of compound at 37 °C and 200 rpm in an incubator shaker until OD600 was 3. Bacterial cultures were subsequently mixed 1:1 (400 μL: 400 μL) with 100% methanol containing 20 ppm (20 μg mL^−1) of tetradeutero-PQS (PQS-D4) and 10 ppm of tetradeutero-HHQ (HHQ-D4) in a 1.5 mL Eppendorf tube. The mixture was vortexed for 5 seconds and spun down for 5 minutes at 12,000 x g. A 700 μL aliquot of the supernatant was removed and stored in glass vials at −20 °C until further liquid chromatography-mass spectrophotometry (LC/MS) analysis as previously described in Lepine et al., 2003[66]. LC/MC analysis was performed using a Micromass Quattro II triple quadrupole mass spectrometer (Micromass Canada, Pointe-Claire, Canada) in positive electrospray ionization mode, interfaced to an HP1100 HPLC equipped with a 4.5 × 150 mm reverse-phase C8 column.
GraphPad Prism 9.2.0 software was used to plot the IC50 curve against the percent inhibition of these small molecules’ production at each concentration.

[6] = system: PA14 isogenic mutant ΔmvfR AT/P cells; assay: AT/P cell formation in ΔmvfR mutant (off-target); conditions: Pseudomonas aeruginosa, PA14, 24 h, read-out: AT/P cell formation, ΔmvfR + compound; PA14 about 100; single replicates (Figure 4b)
[7] = system: 16 MDR P. aeruginosa clinical isolates; assay: Pyocyanin production in MDR clinical isolates; conditions: Pseudomonas aeruginosa, 18 h, Control about 100, replicates
[8] = read-out: DHQ, ΔmvfR-pqsABCD strain
[9] = read-out: PQS, ΔmvfR-pqsABCD strain
[10] = PA14, read-out: % Production 2-AA
[11] = PA14, read-out: % Production AA
[12] = PA14, read-out: % Production DHQ
[13] = PA14, read-out: % Production HHQ
[14] = PA14, read-out: % Production HQNO
[15] = PA14, read-out: % Production PQS
[16] = read-out: Pyocyanin production relative to Control, clinical isolate LGR-4325
[17] = read-out: Pyocyanin production relative to Control, clinical isolate LGR-4326
[18] = read-out: Pyocyanin production relative to Control, clinical isolate LGR-4327
[19] = read-out: Pyocyanin production relative to Control, clinical isolate LGR-4328
[20] = read-out: Pyocyanin production relative to Control, clinical isolate LGR-4330
[21] = read-out: Pyocyanin production relative to Control, clinical isolate LGR-4331 (first section, r117)
[22] = read-out: Pyocyanin production relative to Control, clinical isolate LGR-4331 (second section, r140)
[23] = read-out: Pyocyanin production relative to Control, clinical isolate LGR-4333
[24] = read-out: Pyocyanin production relative to Control, clinical isolate LGR-4343
[25] = read-out: Pyocyanin production relative to Control, clinical isolate LGR-4344
[26] = read-out: Pyocyanin production relative to Control, clinical isolate LGR-4348
[27] = read-out: Pyocyanin production relative to Control, clinical isolate LGR-4356
[28] = read-out: Pyocyanin production relative to Control, clinical isolate LGR-4362
[29] = read-out: Pyocyanin production relative to Control, clinical isolate LGR-4363
[30] = read-out: Pyocyanin production relative to Control, clinical isolate LGR-4364 (first section, r326)
[31] = read-out: Pyocyanin production relative to Control, clinical isolate LGR-4364 (second section, r349)

SMILES: N#Cc1ccc(NC(=O)CC(=O)Nc2ccc(Oc3ccccc3)cc2)cc1 [D57]
- activity at 50 µM [1, 8]: 98.7%
- activity at 50 µM ([1]; read-out: HHQ, ΔmvfR-pqsABCD strain): 92.2%
- activity at 50 µM ([1]; read-out: HQNO, ΔmvfR-pqsABCD strain): 96.6%
- activity at 50 µM [1, 9]: 82.3%
- activity at 50 µM [2]: 6%
- IC50 [2]: 240 nM
- activity at 10 µM (ΔmvfR biofilm): 23.6%
- Response Unit (RU) (MvfR protein (MvfRC87); Concentration 1.00E-05 M): 33.5 RU
- Response Unit (RU) (MvfR protein (MvfRC87); Concentration 1.00E-06 M): 18 RU
- Response Unit (RU) (MvfR protein (MvfRC87); Concentration 1.00E-07 M): 5.7 RU
- Response Unit (RU) (MvfR protein (MvfRC87); Concentration 1.00E-08 M): 1 RU
- Response Unit (RU) (MvfR protein (MvfRC87); Concentration 3.16E-06 M): 26.4 RU
- Response Unit (RU) (MvfR protein (MvfRC87); Concentration 3.16E-07 M): 10.4 RU
- Response Unit (RU) (MvfR protein (MvfRC87); Concentration 3.16E-08 M): 2.9 RU
- solubility at 4 h [3]: 7e-06 M (≈ 2.6 µg/mL)
- activity at 50 µM [4]: 4%
- IC50 [4]: 430 nM
- inhibition at 10 µM (PA14 AT/P cells): ≥ 76%
- activity at 50 µM [5, 10]: 38%
- activity at 50 µM [5, 11]: 298%
- activity at 50 µM [5, 12]: 65%
- activity at 50 µM [5, 13]: 58%
- activity at 50 µM [5, 14]: 54%
- activity at 50 µM [5, 15]: 36%
- activity at 10 µM [6]: 32%
- activity at 10 µM [7, 16]: 11%
- activity at 10 µM [7, 17]: 17.7%
- activity at 10 µM [7, 18]: 18.2%
- activity at 10 µM [7, 19]: 23.1%
- activity at 10 µM [7, 20]: 41.2%
- activity at 10 µM [7, 21]: 24.2%
- activity at 10 µM [7, 22]: 11.3%
- activity at 10 µM [7, 23]: 13.5%
- activity at 10 µM [7, 24]: 20.7%
- activity at 10 µM [7, 25]: 23.5%
- activity at 10 µM [7, 26]: 17.8%
- activity at 10 µM [7, 27]: 11%
- activity at 10 µM [7, 28]: 33.9%
- activity at 10 µM [7, 29]: 20.9%
- activity at 10 µM [7, 30]: 21.8%
- activity at 10 µM [7, 31]: 27.4%

SMILES: N#Cc1ccc(NC(=O)CC(=O)Nc2ccc(C(F)(F)F)cc2)cc1 [D69]
- activity at 50 µM [1, 8]: 112%
- activity at 50 µM [1, 9]: 90.7%
- activity at 50 µM [2]: 4%
- IC50 [2]: 960 nM
- activity at 10 µM (ΔmvfR biofilm): 24.2%
- Response Unit (RU) (MvfR protein (MvfRC87); Concentration 1.00E-05 M): 30 RU
- Response Unit (RU) (MvfR protein (MvfRC87); Concentration 1.00E-06 M): 22.4 RU
- Response Unit (RU) (MvfR protein (MvfRC87); Concentration 1.00E-07 M): 8.9 RU
- Response Unit (RU) (MvfR protein (MvfRC87); Concentration 1.00E-08 M): 1.7 RU
- Response Unit (RU) (MvfR protein (MvfRC87); Concentration 3.16E-06 M): 27.3 RU
- Response Unit (RU) (MvfR protein (MvfRC87); Concentration 3.16E-07 M): 15.6 RU
- Response Unit (RU) (MvfR protein (MvfRC87); Concentration 3.16E-08 M): 4.1 RU
- solubility at 4 h [3]: 2.1e-05 M (≈ 7.29 µg/mL)
- activity at 50 µM [4]: 2%
- IC50 [4]: 1700 nM
- AT/P cells formation, percentage of control (single replicates) (PA14 AT/P cells; PA14, 10 μg mL^−1 meropenem, 10 µM compound, 24 h, control PA14 + vehicle): 16.39% and 11.56%
- inhibition at 10 µM (PA14 AT/P cells): ≥ 76%
- activity at 50 µM [5, 10]: 15%
- activity at 50 µM [5, 11]: 920%
- activity at 50 µM [5, 12]: 13%
- activity at 50 µM [5, 13]: 6%
- activity at 50 µM [5, 14]: 40%
- activity at 50 µM [5, 15]: 16%
- inhibition at 50 µM ([5]; PA14, read-out: HHQ production inhibition): 89 to 99%
- inhibition at 50 µM ([5]; PA14, read-out: HQNO production inhibition): 40 to 92%
- inhibition at 50 µM ([5]; PA14, read-out: PQS production inhibition): 76 to 97%
- inhibition at 50 µM ([5]; PA14, read-out: inhibition of 2-AA production): 82 to 95%
- inhibition at 50 µM ([5]; PA14, read-out: inhibition of DHQ production): 82 to 96%
- activity at 10 µM [6]: 30.1%
- activity at 10 µM [7, 16]: 6.19%
- activity at 10 µM [7, 17]: 4.51%
- activity at 10 µM [7, 18]: 7.7%
- activity at 10 µM [7, 19]: 29.6%
- activity at 10 µM [7, 20]: 12.9%
- activity at 10 µM [7, 21]: 9.26%
- activity at 10 µM [7, 22]: 4.8%
- activity at 10 µM [7, 23]: 6.7%
- activity at 10 µM [7, 24]: 10.8%
- activity at 10 µM [7, 25]: 11.6%
- activity at 10 µM [7, 26]: 7.58%
- activity at 10 µM [7, 27]: 6.29%
- activity at 10 µM [7, 28]: 12.3%
- activity at 10 µM [7, 29]: 9.09%
- activity at 10 µM [7, 30]: 10.1%
- activity at 10 µM [7, 31]: 11.1%
